The record followed here is patent US20230322815A1, “NOVEL COMPOUNDS AND THERAPEUTIC USES THEREOF” (University of Huddersfield, priority 2020, published 2023).

A short description of data set [1]: Dephosphorylation of purified phosphorylated AMPK peptide. On the procedure: Unless otherwise stated, all solvents and materials were purchased from either Sigma Aldrich, Fisher Scientific or Fluorochem and were used without further purification. ^1H, ^13C, DEPT-135 and DEPT-90 NMR data was recorded on either a Bruker Fourier 300 MHz or Bruker Avance III (AVIII) 400 MHz spectrometer or a Bruker Avance Neo 600 MHz NMR spectrometer. Mass spectra were obtained on an Agilent 6210 TOF MS with electrospray ionisation operating in positive ion mode and mass spectra of metal complexes were obtained on a Bruker Micro TOF-q LC mass spectrometer with electrospray ionisation operating in positive ion mode. Phosphorylated ‘SAMS’ peptide HMRSAMS*GLHLVKRR (phosphorylated on the serine residue) was obtained from PeptideSynthetics, Peptide Protein Research Ltd (>95% purity).
There are several potential mechanisms which could lead the observed kinase inhibition ‘readout’ of this screen including, i) direct ATP hydrolysis by the complex(es) and differing Km of the kinases for ATP, and, ii) dephosphorylation of the peptide substrate by the phosphatase activity of the Zn^2+ complex resulting in cycles of peptide phosphorylation by active recombinant enzyme and dephosphorylation by the complex.

Data set [2] has as its system recombinant AMPK (AMPKα p-T172). Description: Western blot of purified recombinant kinase after exposure to complex. The format is biochemical, human. The settings on record: 50 μM complex, 4 hours, in the presence of ATP. On the procedure: (§1) FIG. 10. Western blot analysis of purified recombinant Src and AMPK following exposure to [L2Zn3]^6+ and [L2Cu3]^6+. Purified enzymes were incubated with complexes (50 μM) for 4 hours in the presence of ATP prior to analysis.
Protein lysates and recombinant proteins were resolved on 15% SDS polyacrylamide gels. Proteins were electroblotted onto nitrocellulose membrane by wet transfer in 1×Tris Glycine buffer (Biorad) at 35 mA overnight at room temperature (Allison et al., 2014). After blocking of membranes, these were incubated with primary antibody overnight at 4° C. before addition of rabbit or mouse secondary antibody (HRP-conjugated) for 1 h at room temperature and development of blots by enhanced chemiluminescence. […] Quantification of signals was performed by densitometry using Image J software.
To investigate these hypotheses further, regulatory phospho-amino acids of two key kinases identified by the kinase screen, AMPK and Src, were analysed following incubation of the recombinant kinases with Zn^2+ or Cu^2+ complexes.
A general note: Immunoblotting shows a protein as a band on a membrane.

In the next data set the test system is ARPE19 non-cancer cells. Description: Immunoblot of cellular proteins after treatment. The format is cell-based, human. The settings on record: 5 μM, 40 h. As for the experimental part:
(§2) FIG. 12. Immunoblots showing the differential effects of [L2Cu3]^6+ and [L2Zn3]^6+ treatment of HCT116 cancer cells and ARPE19 non-cancer cells on key cellular proteins associated with cellular and metabolic stress. Representative immunoblot images of the indicated proteins following cell exposure to 5 μM [L2Cu3]^6+ or [L2Zn3]^6+ for 40 h. Tyrosine phosphorylated proteins are indicated using a pan-phospho-Tyr antibody; β-actin as a loading control.
(§3) Protein lysates and recombinant proteins were resolved on 15% SDS polyacrylamide gels. Proteins were electroblotted onto nitrocellulose membrane by wet transfer in 1×Tris Glycine buffer (Biorad) at 35 mA overnight at room temperature (Allison et al., 2014). After blocking of membranes, these were incubated with primary antibody overnight at 4° C. before addition of rabbit or mouse secondary antibody (HRP-conjugated) for 1 h at room temperature and development of blots by enhanced chemiluminescence. Primary antibodies were: anti-Src (total) (Cell Signalling Technology #2123 1:1000), anti-phosphorylated Src (Y527) (Cell Signalling Technology #21055 1:1000), anti-phosphorylated Src (Y416) (Cell Signalling Technology #69435 1:1000), anti-AMPKα (total) (Cell Signalling Technology #2532 1:1000), anti-phosphorylated AMPKα (T172) (Cell Signalling Technology […] 1:1000), anti-phospho-Tyr (pan) (Cell Signalling Technology #8954 1:2000), anti-p53 (Santa Cruz, DO-1 clone, 1:1000), anti-β-actin (Merck MAB1501, 1:40,000). Quantification of signals was performed by densitometry using Image J software.

The next data set has as its system HCT116 cancer cells. As to the kind of experiment: Immunoblot of cellular proteins after treatment. The settings on record: 5 μM, 40 h. The format is cell-based, human. As for the experimental part:
as §2, §3

Data set [3] addresses recombinant Src (p-Y527, p-Y416) (Homo sapiens, UniProt P12931). Description: Western blot of purified recombinant kinase after exposure to complex. The format is biochemical. The settings on record: 50 μM complex, 4 hours, in the presence of ATP. As for the experimental part: as §1, §3
For Src, effects of the complexes on two key regulatory phospho-amino acids were examined, Y527 and Y416 (FIG. 10). […] The decrease in p-Y527 is consistent with the selective phosphatase activity of [L2Zn3]^6+.

For a further data set, the system named is chick embryo. Description: Embryonic toxicity, HCT116 in ovo study. The class given is in vivo, chick (White Leghorn). The settings on record: for embryo tolerability: all doses tested, no statistically significant difference to solvent control; for % Alive / % Dead / Alive (embryos at E18) / Dead (embryos at E18): HCT116 study. As for the experimental part:
10^6 tumor cells (H460, HT29 or HCT116) were grafted onto the upper chorioallantoic membrane (CAM) of the developing chick embryo on embryonic day 9 (E9). Access to the upper CAM was through a small hole drilled through the eggshell of fertilized White Leghorn eggs (into the air sac) on E9 (15 eggs per experimental group).
100 μl of freshly prepared experimental compound, vehicle control or standard-of-care (SoC) drug at their working concentrations were pipetted onto the tumor graft at E11, E13, E15 and E17. On day E18, the upper CAM (with tumor) was removed, washed by PBS buffer and then directly transferred in PFA (fixation for 48 hrs). After that, tumors were carefully cut away from normal CAM tissue and weighed.
Embryonic viability was checked daily. The number of dead embryos was also counted on E18, to evaluate treatment-induced embryo toxicity.

Where [4] appears, read: dose [1]: L2Zn3 70.5 μM, L2Cu3 75 μM.
[5] abbreviates: dose [2]: L2Zn3 141 μM, L2Cu3 150 μM.
Where [6] appears, read: dose [3]: L2Zn3 282 μM, L2Cu3 300 μM.

Chain of recombinant Src (p-Y527, p-Y416) (P12931 whole entry): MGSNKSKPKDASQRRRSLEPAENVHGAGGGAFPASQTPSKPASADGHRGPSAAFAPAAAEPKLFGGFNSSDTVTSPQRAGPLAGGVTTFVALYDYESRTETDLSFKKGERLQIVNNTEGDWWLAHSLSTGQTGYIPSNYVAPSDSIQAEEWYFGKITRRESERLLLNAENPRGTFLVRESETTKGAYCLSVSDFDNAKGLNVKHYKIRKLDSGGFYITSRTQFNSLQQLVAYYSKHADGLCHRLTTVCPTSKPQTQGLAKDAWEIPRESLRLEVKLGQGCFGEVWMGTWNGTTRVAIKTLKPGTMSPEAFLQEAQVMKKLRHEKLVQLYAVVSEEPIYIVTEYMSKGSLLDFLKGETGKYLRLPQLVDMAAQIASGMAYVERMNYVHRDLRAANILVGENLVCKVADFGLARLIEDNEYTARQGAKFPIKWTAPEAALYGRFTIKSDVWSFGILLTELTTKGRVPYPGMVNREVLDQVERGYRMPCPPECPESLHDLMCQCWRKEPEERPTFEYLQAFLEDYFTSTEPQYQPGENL

With `[Cu+2].[Cu+2].[Cu+2].c1ccc(-c2csc(NCCN(CCNc3nc(-c4ccccn4)cs3)CCNc3nc(-c4ccccn4)cs3)n2)nc1.c1ccc(-c2csc(NCCN(CCNc3nc(-c4ccccn4)cs3)CCNc3nc(-c4ccccn4)cs3)n2)nc1` [[L2Cu3]^6+], the “dephosphorylation of phosphorylated AMPK peptide” value in data set [1] is reported as “neither complex resulted in dephosphorylation”. In addition, the “AMPKα p-T172 levels by immunoblotting” value in data set [2] is “significantly reduced p-T172 levels”. Further, in the data set on ARPE19 non-cancer cells, the p53 levels entry is recorded as “decreased”. Further, in the data set with HCT116 cancer cells, the “increase in p53 levels” value is ~1.7 fold. Besides, the “detection of p-Y416” value in data set [3] was “could not be detected”. For the same molecule, the embryo tolerability entry in the data set with chick embryo is given as “well tolerated”. For the same molecule, in the data set with chick embryo (setting [4]), the “% Alive” value came out at 100%, the “% Dead” value was found to be 0%, the “Alive (embryos at E18)” value turned out to be 14 and the “Dead (embryos at E18)” value is 0. Moreover, in the data set on chick embryo (setting [5]), the “% Alive” value worked out at 86.67%, the “% Dead” value stood at 13.33%, the “Alive (embryos at E18)” value is recorded as 13 and the “Dead (embryos at E18)” value is 2. For the same molecule, in the data set on chick embryo (setting [6]), the “% Alive” value stood at 86.67%, the “% Dead” value came out at 13.33%, the “Alive (embryos at E18)” value is recorded as 13 and the “Dead (embryos at E18)” value turned out to be 2.

In the case of `[Zn+2].[Zn+2].[Zn+2].c1ccc(-c2csc(NCCN(CCNc3nc(-c4ccccn4)cs3)CCNc3nc(-c4ccccn4)cs3)n2)nc1.c1ccc(-c2csc(NCCN(CCNc3nc(-c4ccccn4)cs3)CCNc3nc(-c4ccccn4)cs3)n2)nc1` [[L2Zn3]^6+], the “dephosphorylation of phosphorylated AMPK peptide” value in data set [1] is “neither complex resulted in dephosphorylation”. Moreover, the “AMPKα p-T172 levels by immunoblotting” value in data set [2] was “significantly reduced p-T172 levels”. Also, the p53 levels entry in the data set on ARPE19 non-cancer cells is reported as “decreased”. Further, in the data set on HCT116 cancer cells, the “cellular p-T172 AMPKα relative to total AMPKα levels” value was “increased” and the “increase in p53 levels” value is recorded as ~2.7 fold. In the data set with HCT116 cancer cells (pan phospho-tyrosine antibody), the “decrease in total levels of Tyr-phosphorylated proteins” value is ~10%. Further, in data set [3], the “decrease in p-Y527 relative to total Src levels” value is given as ~30% and the “increase in p-Y416 levels” value is ~5 fold. Moreover, the embryo tolerability entry in the data set on chick embryo is “well tolerated”. Besides, in the data set on chick embryo (setting [4]), the “% Alive” value is 100%, the “% Dead” value amounted to 0%, the “Alive (embryos at E18)” value was 15 and the “Dead (embryos at E18)” value was 0. In addition, in the data set on chick embryo (setting [5]), the “% Alive” value was determined as 86.67%, the “% Dead” value is listed as 13.33%, the “Alive (embryos at E18)” value worked out at 13 and the “Dead (embryos at E18)” value turned out to be 2. In the data set with chick embryo (setting [6]), the “% Alive” value was 80.00%, the “% Dead” value is listed as 20.00%, the “Alive (embryos at E18)” value was determined as 12 and the “Dead (embryos at E18)” value is 3.
